Data reported in patent publication US10149474B2, “Herbicidal compositions comprising isoxaflutole and diflufenican” (BAYER CROPSCIENCE AKTIENGESELLSCHAFT, priority 2015, dated 2018).

Tests used:
Experiment in all cases: Greenhouse trial, herbicidal activity against weed plants pre-emergence
Conditions in all cases: 3 weeks
EPHHL = type: in vivo, Euphorbia heterophylla
From the text: (§1) Test Conditions in the Greenhouse Trial, Herbicidal Activity Against Weed Plants Pre-Emergence
(§2) Seeds of monocotyledonous and dicotyledonous weed plants and crop plants are shown in sandy loam soil in wood fibre pots, and covered with soil. The compounds of the invention, formulated in the form of wettable powders (WP) or emulsifiable concentrates (EC), are then applied to the surface of the covering earth, in the form of an aqueous suspension or emulsion, with a water application rate when converted of 600 to 800 I/ha with addition of 0.2% of wetting agent. Following the treatment, the pots are placed in a greenhouse and maintained under good growth conditions for the test plants. Visual scoring of the damage to the trial plants takes place after a trial time of 3 weeks in comparison to untreated controls (herbicidal activity in percent (%): 100% activity=plants have died; 0% activity=as control plants). The results are set out in the tables which follow.
EPHHL Euphorbia heterophylla
(§3) E^C=Expected value according to Colby (E^C=A+B−A×B/100)
(§4) Δ=Difference (%) between measured value and expected value (%) (measured value minus expected value)
(§5) • measured value E is greater than E^C:→synergism (+Δ) • measured value E is equal to E^C:→additive effect • measured value E is smaller than E^C:→antagonism (−Δ)

POLCO = type: in vivo, Polygonum convolvulus
From the text: as §1, §2
POLCO Polygonum convolvulus
as §3, §4, §5

PHBPU = type: in vivo, Pharbitis purpureum
From the text: as §1, §2
PHBPU Pharbitis purpureum
as §3, §4, §5

AMATA = type: in vivo, Amaranthus tamariscinus
From the text: as §1, §2
AMATA Amaranthus tamariscinus
as §3, §4, §5

POAAN = type: in vivo, Poa annua
From the text: as §1, §2, §3, §4, §5

ECHCG = type: in vivo, Echinochloa crus galli
From the text: as §1, §2
ECHCG Echinochloa crus galli
as §3, §4, §5

AMAPA USA12001 = type: in vivo, Amaranthus palmeri
From the text: as §1, §2
AMAPA (USA12001) Amaranthus palmeri (against HPPD-resistant species)
as §3, §4, §5

CS(=O)(=O)c1cc(C(F)(F)F)ccc1C(=O)c1cnoc1C1CC1 [IFT, isoxaflutole]
Activity [%] against EPHHL (EPHHL; rate 6 g/ha): 70%
Activity [%] against POLCO (POLCO; rate 3 g/ha): 0%
Activity [%] against POLCO (POLCO; rate 13 g/ha): 35%
Activity [%] against PHBPU (PHBPU; rate 6 g/ha): 20%
Activity [%] against AMATA (AMATA; rate 3 g/ha): 10%
Activity [%] against POAAN (POAAN; rate 6 g/ha): 0%
Activity [%] against POAAN (POAAN; rate 25 g/ha): 0%
Activity [%] against ECHCG (ECHCG; rate 3 g/ha): 73%
Activity [%] against AMAPA USA12001 (AMAPA USA12001; rate 6 g/ha): 0%
Activity [%] against AMAPA USA12001 (AMAPA USA12001; rate 13 g/ha): 15%
Activity [%] against AMAPA USA12001 (AMAPA USA12001; rate 25 g/ha): 55%

O=C(Nc1ccc(F)cc1F)c1cccnc1Oc1cccc(C(F)(F)F)c1 [DFF, diflufenican]
Activity [%] against EPHHL (EPHHL; rate 37.5 g/ha): 30%
Activity [%] against POLCO (POLCO; rate 37.5 g/ha): 55%
Activity [%] against PHBPU (PHBPU; rate 9.375 g/ha): 0%
Activity [%] against PHBPU (PHBPU; rate 18.75 g/ha): 3%
Activity [%] against PHBPU (PHBPU; rate 37.5 g/ha): 25%
Activity [%] against PHBPU (PHBPU; rate 75 g/ha): 70%
Activity [%] against AMATA (AMATA; rate 9.375 g/ha): 83%
Activity [%] against POAAN (POAAN; rate 9.375 g/ha): 3%
Activity [%] against POAAN (POAAN; rate 18.75 g/ha): 88%
Activity [%] against ECHCG (ECHCG; rate 9.375 g/ha): 5%
Activity [%] against ECHCG (ECHCG; rate 18.75 g/ha): 5%
Activity [%] against AMAPA USA12001 (AMAPA USA12001; rate 9.375 g/ha): 20%
Activity [%] against AMAPA USA12001 (AMAPA USA12001; rate 18.75 g/ha): 35%
Activity [%] against AMAPA USA12001 (AMAPA USA12001; rate 37.5 g/ha): 45%
Activity [%] against AMAPA USA12001 (AMAPA USA12001; rate 75 g/ha): 70%
